Measurements as given in PubChem BioAssay (NCI).
Several values for one entry are separate records, joined by “and”; a condition that tells them apart may be missing. Identical values can stand only once.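 Briefly, cells in 96-well plates were exposed to five compound concentrations for 48 h, and endpoints were estimated by linear interpolation. GI50 marks 50% less growth. At the TGI there is no net growth.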

Tests used:
Assay in all cases: growth of human tumour cells (NCI), 48 h
[1] = system: 786-0 renal
[2] = system: A498 renal
[3] = system: A549 NSCLC
[4] = system: HCT-15 colon
[5] = system: HL-60(TB) leukemia
[6] = system: LOX IMVI melanoma
[7] = system: NCI-H460 lung
[8] = system: OVCAR-4 ovarian
[9] = system: RPMI-8226 leukemia
[10] = system: TK-10 renal

Compound | GI50 [1] | TGI [1] | GI50 [2] | TGI [2] | GI50 [3] | TGI [3] | GI50 [4] | TGI [4] [µM] | GI50 [5] | TGI [5] | GI50 [6] | TGI [6] [µM] | GI50 [7] | TGI [7] [µM] | GI50 [8] | TGI [8] [µM] | GI50 [9] | TGI [9] [µM] | GI50 [10] | TGI [10]
C=CCN1C=CC(=O)[C@H](O[Si](C)(C)C(C)(C)C)[C@@H]1/C=C/c1ccccc1 | 15.4 µM | 29.4 µM | 13.2 µM | 26.1 µM | 16.8 µM | 50.3 µM | 12.5 µM | 25.6 | 3.36 µM | 20.2 µM | 13.1 µM | 26.4 | 8.38 µM | 23.8 | 11.6 µM | 24.7 | 13.6 µM | 45.2 | 14 µM | 28.5 µM
Cc1ccc(C(=O)C(Cl)C(Cl)c2ccc(C)cc2)cc1 (stereo not given) | – | 4.61 µM | – | 30 µM | – | > 91.8 µM | – | 3.73 | – | 10 µM | – | 3.78 | – | 22.3 | – | 5.04 | – | 7.25 | – | 8.13 µM
O=c1[nH]ccc2nc(N3CCC(O)CC3)nc(Nc3cccc(C(F)(F)F)c3)c12 | 2.06 µM | > 100 µM | 2.5 µM | > 100 µM | 3.83 µM | > 100 µM | 0.543 µM | 31.6 | 0.863 µM | 5.06 µM | 1.42 µM | 16.6 | 1.62 µM | 15 | 1.73 µM | 36.4 | 2.95 µM | 92 | 5.98 µM | 44.9 µM
O=C(O)CC12C3C4C5C3C1C5C42 (stereo not given) | – | > 100 µM | – | > 100 µM | – | > 100 µM | – | > 100 | – | > 100 µM | – | > 100 | – | > 100 | – | > 100 | – | > 100 | – | > 100 µM
COc1cc2cc(C(=O)Nc3cc(N)c4ccccc4c3CCCl)[nH]c2c(OC)c1OC | < 0.005 µM | 1.09 µM | 0.0271 µM | 0.19 µM | 0.116 µM | > 50 µM | 0.0382 µM | – | 0.0361 µM | 0.237 µM | 0.0301 µM | 1.53 | 0.00913 µM | 0.0396 | 0.0733 µM | 0.325 | < 0.021 µM | 0.189 | 0.0932 µM | 6.36 µM
Cc1ccc(-c2nc(N)nc3c2nnn3Cc2cccc(CO[C@H]3CCOC3)n2)o1 | > 100 µM | > 100 µM | 69.9 µM | > 100 µM | > 100 µM | > 100 µM | > 100 µM | > 100 | > 100 µM | > 100 µM | > 100 µM | > 100 | > 100 µM | > 100 | 66.5 µM | > 100 | > 100 µM | > 100 | > 100 µM | > 100 µM
COc1c(Cl)c2c(c(OC)c1OC)-c1ccc(SC)c(=O)cc1[C@@H](NC(=O)OCC(F)(F)F)CC2 | < 0.01 µM | > 30.4 µM | < 0.01 µM | < 0.01 µM | < 0.01 µM | > 100 µM | < 0.01 µM | > 61.3 | < 0.01 µM | < 0.01 µM | < 0.01 µM | > 100 | < 0.01 µM | 10.2 | 0.0889 µM | > 100 | < 0.01 µM | 8.21 | 6.11 µM | > 100 µM
Cc1cc(N2CCN(c3ccnc4cc(Cl)ccc34)CC2)nc(NC2CCCCC2)n1 | 1.57 µM | 3.05 µM | 0.118 µM | 3.21 µM | 2.02 µM | 4.48 µM | 1.55 µM | 3.44 | 2.25 µM | 5.32 µM | 1.73 µM | 3.19 | 1.88 µM | 3.71 | 2.08 µM | 8.77 | 1.85 µM | 4.8 | 1.87 µM | 3.54 µM
CN(C)C1CCN(C(=O)c2ccc(NC(=O)Nc3ccc(-c4nc(N5CCOCC5)nc(N5CCOCC5)n4)cc3)cc2)CC1 | 0.237 µM and 0.136 µM and 0.571 µM | 2.82 µM and 2.5 µM and 8.53 µM | 0.0391 µM and 0.03 µM and 0.00566 µM | 0.282 µM and 0.154 µM and 0.0788 µM | 0.0132 µM and 0.0183 µM and 0.0417 µM | 0.232 µM and 0.36 µM and 1.02 µM | 3.08 µM and 2.19 µM | > 100 | 0.244 µM and 0.0457 µM and 0.0526 µM | > 20.4 µM and 2.5 µM and 8.91 µM | < 0.01 µM and 0.0111 µM and 0.0296 µM | – | 0.029 µM and 0.0334 µM and 0.0608 µM | – | < 0.01 µM and 0.00776 µM and 0.0127 µM | – | 0.0404 µM and 0.0615 µM and 0.0978 µM | – | 0.363 µM and 0.389 µM and 0.122 µM | 1.84 µM and 1.56 µM and 2.5 µM
C1CCN(C2OC3C(COC3N3CCCCC3)OC2OC2CCO[C@@H]2N2CCCCC2)CC1 (stereo not given in full) | – | > 100 µM | – | > 100 µM | – | > 100 µM | – | > 100 | – | 67.8 µM | – | > 100 | – | > 100 | – | > 100 | – | > 100 | – | > 100 µM
